Experiments:
[1] = target: T1, AGFG1 Arf-GAP domain and FG repeat-containing protein 1 (Homo sapiens, UniProt P52594); assay: competitive isoTOP-ABPP; type: binding; conditions: for isoTOP-ABPP ratio (R) at liganded lysine P52594_K134: 50 uM, in vitro, sol, 231
T1 construct: isoTOP-ABPP experiments performed in cell lysates (in vitro); endogenous in cells; host or cells: soluble proteome of human cancer cell lines (MDA-MB-231, Ramos, Jurkat)
T1 sequence (P52594 1-562): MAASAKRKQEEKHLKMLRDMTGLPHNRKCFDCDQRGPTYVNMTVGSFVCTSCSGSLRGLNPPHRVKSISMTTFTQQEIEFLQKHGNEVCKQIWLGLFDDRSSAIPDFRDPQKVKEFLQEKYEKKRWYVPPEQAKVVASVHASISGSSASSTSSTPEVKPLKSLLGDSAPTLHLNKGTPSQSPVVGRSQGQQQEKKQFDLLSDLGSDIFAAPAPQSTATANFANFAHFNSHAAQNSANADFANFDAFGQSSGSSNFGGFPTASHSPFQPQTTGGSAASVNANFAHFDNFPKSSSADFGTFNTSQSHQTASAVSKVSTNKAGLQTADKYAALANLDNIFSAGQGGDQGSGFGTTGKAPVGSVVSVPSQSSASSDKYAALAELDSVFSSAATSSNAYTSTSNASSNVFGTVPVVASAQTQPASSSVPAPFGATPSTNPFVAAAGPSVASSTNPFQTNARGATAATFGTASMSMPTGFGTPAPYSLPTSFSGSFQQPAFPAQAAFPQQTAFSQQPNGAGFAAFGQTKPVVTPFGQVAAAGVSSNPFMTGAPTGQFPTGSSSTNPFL
Method: (§1) In vitro covalent fragment treatment for isoTOP-ABPP. All compounds were made up as solutions in DMSO (100×) and were used at a final concentration of 50 μM for activated esters and 100 μM for guanidinylating agents. For each profiling sample, 0.5 ml of lysate was treated with 5 μl of the 100× compound stock solution or 5 μl of DMSO. Samples were treated with activated esters for
(§2) STP-alkyne labeling and click chemistry. For concentration-dependent reactivity measurements by isoTOP-ABPP, 0.5 ml proteome aliquots were treated at ambient temperature with 1 mM STP-alkyne 1 (5 μl of 100 mM stock in DMSO) and 0.1 mM STP alkyne 1 (5 μl of 10 mM stock in DMSO), respectively. For competitive isoTOP-ABPP, after in vitro fragment treatment (detailed above), the samples were labeled for 1 h at ambient temperature with 0.1 mM STP-alkyne 1 (5 μl of 10 mM stock in DMSO). Samples were conjugated by copper-mediated azide-alkyne cycloaddition (CuAAC) to either the light (1 mM STP-alkyne or fragment treated) or heavy (0.1 mM STP-alkyne or DMSO treated) TEV tags (10 μl of 5 mM stocks in DMSO, final concentration=100 μM) using tris(2-carboxyethyl)phosphine hydrochloride
(§3) R value calculation and processing. The ratios of light and heavy MS1 peaks for each unique peptide were quantified with a CIMAGE software using default parameters (3 MS1 acquisitions per peak and signal to noise threshold set to 2.5). For reactivity measurements by isoTOP-ABPP, the R value was calculated from the ratio of MS1 peak areas, comparing the 1 mM STP alkyne sample (light TEV tag) with the 0.1 mM STP alkyne sample (heavy TEV tag). For competitive isoTOP-ABPP, the R value was calculated from the ratio of MS1 peak areas, comparing the DMSO treated sample (heavy TEV tag) with the compound treated sample (light TEV tag). […] Ratios for unique peptide entries are calculated for each experiment; overlapping peptides with the same modified lysine (for example, different charge states, MudPIT chromatographic steps or tryptic termini) are grouped together and the median ratio is reported as the final ratio (R). The peptide ratios reported by CIMAGE were further filtered to ensure the removal or correction of low-quality ratios in each individual data set. The quality filters applied were the following: removal of half tryptic peptides; for ratios with high standard deviations from the median (90% of the median or above) the lowest ratio was taken instead of the median; removal of peptides with R=20 and only a single MS2 event triggered during the elution of the parent ion; manual annotation of all the peptides with ratios of 20, removing any peptides with low quality elution profiles that remained after the previous curation steps (only done for competitive isoTOP-ABPP).
(§4) Cross-data processing for fragment screening. For compound treated samples, biological replicates of the same condition were averaged, if the standard deviation was below 60% of the mean; otherwise, for lysines with at least one R value <4 for a particular compound, the lowest value of the ratio set was taken. For lysines, where all R values for a particular compound were ≥4, the average was reported. For peptides containing several possible modified lysines, the lysine with the highest number of quantification events was used for analysis and the remaining, redundant peptides were reported as alternative modification sites. Peptides included in the aggregate dataset (those used for further bioinformatics and statistical analyses) were required to have been quantified in 2 experiments for competitive isoTOP-ABPP. Lysines were categorized as liganded, if they had at least one ratio R≥4 (hit fragments). For liganded lysines with R=20 for all liganding events, lysines were required to have been quantified with R=20 in two separate experiments and were further required to have been quantified with R<20 in one additional experiment.

[2] = target: T2, ABCE1 ATP-binding cassette sub-family E member 1 (Homo sapiens, UniProt P61221); assay: competitive isoTOP-ABPP; conditions: for isoTOP-ABPP ratio (R) at liganded lysine P61221_K191 / isoTOP-ABPP ratio (R) at liganded lysine P61221_K478: 50 uM, in vitro, sol, 231
T2 construct: isoTOP-ABPP experiments performed in cell lysates (in vitro); endogenous in cells; host or cells: soluble proteome of human cancer cell lines (MDA-MB-231, Ramos, Jurkat)
Method: as §1, §2, §3, §4

SMILES	isoTOP-ABPP ratio (R) at liganded lysine P52594_K134 [1]	isoTOP-ABPP ratio (R) at liganded lysine P61221_K191 [2]	isoTOP-ABPP ratio (R) at liganded lysine P61221_K478 [2]	isoTOP-ABPP ratio, lysine P52594_K134 ([1]; 50 uM_231_sol_in vitro)	isoTOP-ABPP ratio, lysine P61221_K191 ([2]; 50 uM_231_sol_in vitro)	isoTOP-ABPP ratio, lysine P61221_K478 ([2]; 50 uM_231_sol_in vitro)	further results
O=C(Oc1ccc([N+](=O)[O-])cc1[N+](=O)[O-])c1ccc(Oc2ccccc2)cc1 [fragment 39, 2,4-Dinitrophenyl 4-phenoxybenzoate]	1.0	0.8	1.0				
O=C(Oc1ccc([N+](=O)[O-])cc1[N+](=O)[O-])c1ccccc1Nc1cccc(C(F)(F)F)c1 [fragment 40, 2,4-Dinitrophenyl 2-((3-(trifluoromethyl)phenyl)amino)benzoate]	0.8	0.9	1.0				
CC(C)(C)OC(=O)NCCCC(=O)Oc1ccc([N+](=O)[O-])cc1[N+](=O)[O-] [fragment 41, 2,4-Dinitrophenyl 4-((tert-butoxycarbonyl)amino)butanoate]	20.0	1.2	1.3				
O=C(Oc1ccc([N+](=O)[O-])cc1[N+](=O)[O-])C(c1ccccc1)(c1ccccc1)c1ccccc1 [fragment 42, 2,4-Dinitrophenyl 2,2,2-triphenylacetate]	1.0	1.0	1.1				
CC(=O)Oc1ccc([N+](=O)[O-])cc1[N+](=O)[O-] [fragment 43, 2,4-Dinitrophenyl acetate]	4.8	1.3	1.4				
N#Cc1ccc(C(=O)Oc2ccc([N+](=O)[O-])cc2[N+](=O)[O-])cc1 [fragment 44, 2,4-Dinitrophenyl 4-cyanobenzoate]				1.5	1.1	0.9	
O=C(CCc1ccc2c(c1)OCO2)Oc1ccc([N+](=O)[O-])cc1[N+](=O)[O-] [fragment 45, 2,4-Dinitrophenyl 3-(benzo[d][1,3]dioxol-5-yl)propanoate]				20.0	1.1	1.5	
O=C(ON1C(=O)CCC1=O)c1cc(C(F)(F)F)cc(C(F)(F)F)c1 [fragment 46, 3,5-Bis(trifluoromethyl)benzoic acid NHS ester]				1.0	20.0	11.4	
O=C(Oc1c(F)c(F)cc(F)c1F)c1cc(C(F)(F)F)cc(C(F)(F)F)c1 [fragment 48, 2,3,5,6-Tetrafluorophenyl 3,5-bis(trifluoromethyl)benzoate]				1.0	1.0	1.1	
COC(=O)NC(=NC(=O)OCC1c2ccccc2-c2ccccc21)n1cccn1 [fragment 49, N-Methoxycarbonyl-N′-9-fluorenylmethoxycarbonyl-pyrazole-1-carboxamidine]							isoTOP-ABPP ratio, lysine P52594_K134 ([1]; 100 uM_231_sol_in vitro): 0.8; isoTOP-ABPP ratio, lysine P61221_K191 ([2]; 100 uM_231_sol_in vitro): 20.0; isoTOP-ABPP ratio, lysine P61221_K478 ([2]; 100 uM_231_sol_in vitro): 1.0
CC(C)(C)OC(=O)N=C(NC(=O)OC(C)(C)C)n1cccn1 [fragment 50, reference compound]							isoTOP-ABPP ratio, lysine P52594_K134 ([1]; 100 uM_231_sol_in vitro): 1.0; isoTOP-ABPP ratio, lysine P61221_K191 ([2]; 100 uM_231_sol_in vitro): 14.1; isoTOP-ABPP ratio, lysine P61221_K478 ([2]; 100 uM_231_sol_in vitro): 2.1
NC(=O)c1cc(C(F)(F)F)cc(C(F)(F)F)c1 [fragment 51, reference compound]				0.9	1.0	0.9	

— US20210255193A1, “LYSINE REACTIVE PROBES AND USES THEREOF” (The Scripps Research Institute, priority 2017, published 2021)
